Assay results from patent publication US20190119200A1, “TERTIARY AMIDES AND METHOD OF USE” (AbbVie Inc., priority 2016, published 2019).

Legend:
[1] = target: T1, LPAR1 (Homo sapiens, UniProt Q92633); assay: LPAR1 Arrestin Assay (arrestin reporter assay); type: cell-based; conditions: U2OS cells stably expressing the LPAR1 receptor, 200 nM 18:1 LPA (EC80); for Emax: read-out: Maximum Inhibition
T1 construct: host or cells: U2OS
Summary of the method: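 U2OS cells stably expressing LPAR1 pretreated 1 h at 37° C with compound, then stimulated 5 h with 200 nM 18:1 LPA (EC80), 0.1% DMSO, 0.02% BSA. β-lactamase reporter read by CCF4-AM FRET (460/530 nm emission) after 2 h dye load; 12-point curves, duplicate, n≥3.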

[2] = system: LPA-induced MCP-1 in NRK-49F cells; assay: LPA-induced MCP-1 AlphaLISA assay; type: cell-based; conditions: Rattus norvegicus, final LPA 10 μM, 7 hours; for Emax: read-out: Maximum Inhibition
Summary of the method: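 NRK-49F rat fibroblasts, serum-starved overnight, pretreated with compound for 30 min at 37 °C (1% DMSO final), then stimulated with 10 μM LPA final. MCP-1 in the supernatant was measured by mouse/rat CCL2 AlphaLISA. IC50 values came from four-parameter logistic fits of the ratio data.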

T1 sequence (Q92633 whole entry): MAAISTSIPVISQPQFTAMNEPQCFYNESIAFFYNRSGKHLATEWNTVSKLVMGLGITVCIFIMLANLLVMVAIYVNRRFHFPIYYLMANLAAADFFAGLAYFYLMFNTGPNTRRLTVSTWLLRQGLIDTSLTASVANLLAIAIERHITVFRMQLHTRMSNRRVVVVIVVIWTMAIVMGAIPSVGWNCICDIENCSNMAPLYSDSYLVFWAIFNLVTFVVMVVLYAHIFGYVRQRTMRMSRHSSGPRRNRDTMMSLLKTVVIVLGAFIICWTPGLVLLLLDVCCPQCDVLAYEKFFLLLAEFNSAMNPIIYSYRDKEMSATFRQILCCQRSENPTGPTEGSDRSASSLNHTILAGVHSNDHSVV

SMILES | IC50 [1] | Emax [1] | IC50 [2] | Emax [2]
COc1cc(C(=O)N(CCCc2ccccc2)CCCC(C)(C)C(=O)O)cc(OC)c1C [Example 57, 5-[(3,5-dimethoxy-4-methylbenzoyl)(3-phenylpropyl)amino]-2,2-dimethylpentanoic Acid] | 4 nM | 103% | 39 nM | 97%
COc1cc(C(=O)N(CCCCC(=O)O)CCCc2ccccc2F)cc(OC)c1C [Example 32, 5-{(3,5-dimethoxy-4-methylbenzoyl)[3-(2-fluorophenyl)propyl]amino}pentanoic Acid] | 76 nM | 112% | 473 nM | 89%
COc1cc(C(=O)N(CCCc2cccc(F)c2)CCSCC(=O)O)cc(OC)c1C [Example 117, [(2-{(3,5-dimethoxy-4-methylbenzoyl)[3-(3-fluorophenyl)propyl]amino}ethyl)sulfanyl]acetic Acid] | 103 nM | 116% | 180 nM | 91%
COc1cc(C(=O)N(CCCc2ccccc2)CCCC(C)(O)C(=O)O)cc(OC)c1C (stereo not drawn) [Example 155, 5-[(3,5-dimethoxy-4-methylbenzoyl)(3-phenylpropyl)amino]-2-hydroxy-2-methylpentanoic Acid] | 401 nM | 125% | 763 nM | 81%
COc1ccc(C2(C(=O)N(CCCCC(=O)O)CCCc3ccccc3)CC2)cc1 [Example 8, 5-{[1-(4-methoxyphenyl)cyclopropane-1-carbonyl](3-phenylpropyl)amino}pentanoic Acid] | 691 nM | 112% | 1830 nM | 84%
COc1cc(C(=O)N(CCCc2ccccc2F)CCSCC(=O)O)cc(OC)c1C [Example 116, [(2-{(3,5-dimethoxy-4-methylbenzoyl)[3-(2-fluorophenyl)propyl]amino}ethyl)sulfanyl]acetic Acid] | 281 nM | 108% | 173 nM | 85%
COc1cc(C(=O)N(CCCCC(=O)O)CCCc2ccccc2)cc(OC)c1C(F)(F)F [Example 37, 5-{[3,5-dimethoxy-4-(trifluoromethyl)benzoyl](3-phenylpropyl)amino}pentanoic Acid] | 231 nM | 122% | 479 nM | 81%
COc1cc(C(=O)N(CCCCC(=O)O)CCCc2ccccc2)cc(OC)c1OC [Example 10, 5-[(3-phenylpropyl)(3,4,5-trimethoxybenzoyl)amino]pentanoic Acid] | 674 nM | 114% | 4840 nM | 70%
COc1cc(C(=O)N(CCCCC(=O)O)CCCc2ccc(Cl)o2)cc(OC)c1C [Example 185, 5-{[3-(5-chlorofuran-2-yl)propyl](3,5-dimethoxy-4-methylbenzoyl)amino}pentanoic Acid] | 288 nM | 122% | 536 nM | 84%
